Laboratory results from patent US9771343B2, “2-alkyl-or-aryl-substituted tanshinone derivatives, and preparation method and application thereof” (Hangzhou Bensheng Pharmaceutical Co., Ltd., priority 2011, dated 2017).
≈ marks a conversion by molar mass, not a printed value.

Assays:
[1] = system: K562/adr (drug-resistant, chronic myeloid leukemia, CML); assay: MTT cell growth inhibition, K562/adr leukemia cells, 72 h; type: cell-based; settings: Homo sapiens, K562/Adr; for IC50: read-out: IC50; for IC90: read-out: IC90
Procedure: (§1) The standard sample of tanshinone I (TA) and the 2-alkyl- or 2-aromatic-substituted tanshinone I derivatives of the present invention are sufficiently dissolved in dimethylsulfoxide to produce a stock solution of 10 mg/mL, which is refrigerated at 4° C. and stored in dark, and is diluted with cell culture medium to a desired concentration prior to experimentation.
(§2) Obtaining 6000 well-growing leukemia cells and inoculating them into wells of a 96-well cell culture plate. The culture medium is the RPMI-1640 cell culture medium containing 10% fetal bovine serum. After adding on the second day the 2-alkyl- or 2-aromatic-substituted tanshinone I derivatives of different concentrations and mixing uniformly, placing the plate in a carbon dioxide cell incubator (5% CO2) at 37° C. and incubated for 72 hours. Then the viable cell concentration is determined by MTT method. In this experiment, the cell viability in control group (not treated with any compound) is set as 100%, and the cell viability (%) after treatment by the compounds and the half maximum inhibitory concentration for the leukemia cell at 72 hours (IC50 value of 72 hours, μg/mL) are calculated.

[2] = system: Kasumi-1 (acute myeloid leukemia M2 type, AML-M2); assay: MTT cell growth inhibition, Kasumi-1 leukemia cells, 72 h; type: cell-based; settings: Homo sapiens, Kasumi-1, 72 h; for IC50: read-out: IC50; for IC90: read-out: IC90
Procedure: as §1, §2

[3] = system: NB4 (acute promyelocytic leukemia, AML); assay: MTT cell growth inhibition, NB4 leukemia cells, 72 h; type: cell-based; settings: NB4, 72 h; for IC50: read-out: IC50; for IC90: read-out: IC90
Procedure: as §1, §2

[4] = system: Jurkat (acute lymphoblastic leukemia, ALL); assay: MTT cell growth inhibition, Jurkat leukemia cells, 72 h; type: cell-based; settings: Homo sapiens, 72 h; for IC50: read-out: IC50; for IC90: read-out: IC90
Procedure: as §1, §2

[5] = system: H9 (acute lymphoblastic leukemia, ALL); assay: MTT cell growth inhibition, H9 leukemia cells, 72 h; type: cell-based; settings: H9, 72 h; for IC50: read-out: IC50; for IC90: read-out: IC90
Procedure: as §1, §2

[6] = system: RPMI8226 (multiple myeloma); assay: MTT cell growth inhibition, RPMI8226 multiple myeloma cells, 72 h; type: cell-based, human; settings: Homo sapiens, RPMI 8226, 72 h; for IC50: read-out: IC50; for IC90: read-out: IC90
Procedure: as §1, §2

A549 (human lung cancer) = assay: MTT cell growth inhibition, A549 cells, 72 h; type: cell-based; settings: Homo sapiens, A549, 72 h; for IC50: read-out: IC50; for IC90: read-out: IC90
Procedure: as §1, with “with a” for “with”, “to the” for “to a”
(§3) Obtaining 6000 well-growing human solid tumor cells and inoculating them into wells of a 96-well cell culture plate. The culture medium is DMEM High Glucose cell culture medium containing 10% fetal bovine serum. The plate is placed in a carbon dioxide cell incubator (5% CO2) at 37° C. and incubated for 24 hours. After adding the 2-alkyl- or 2-aromatic-substituted tanshinone I derivatives of different concentrations and mixing uniformly, the plate is placed in a carbon dioxide cell incubator (5% CO2) at 37° C. and incubated for 72 hours. Then the viable cell concentration is determined by MTT method. In this experiment, the cell viability in control group (not treated with any compound) is set as 100%, and the cell viability (%) after treatment by the compounds and the half maximum inhibitory concentration for the leukemia cell at 72 hours (IC50 value of 72 hours, μg/mL) are calculated.

[7] = system: PANC-1 (pancreatic cancer); assay: MTT cell growth inhibition, PANC-1 cells, 72 h; type: cell-based, human; settings: Homo sapiens, PANC-1, 72 h; for IC50: read-out: IC50; for IC90: read-out: IC90
Procedure: as §1, with “with a” for “with”, “to the” for “to a”
as §3

[8] = system: Becap37 (human breast cancer cell); assay: MTT cell growth inhibition, Becap37 cells, 72 h; type: cell-based; settings: Homo sapiens, Becap-37, 72 h; for IC50: read-out: IC50; for IC90: read-out: IC90
Procedure: as §1, with “with a” for “with”, “to the” for “to a”
as §3

MG63 (osteosarcoma) = assay: MTT cell growth inhibition, MG63 cells, 72 h; type: cell-based, human; settings: Homo sapiens, MG-63, 72 h; for IC50: read-out: IC50; for IC90: read-out: IC90
Procedure: as §1, with “with a” for “with”, “to the” for “to a”
as §3

[9] = system: Hep G2 (human liver cancer cell); assay: MTT cell growth inhibition, Hep G2 cells, 72 h; type: cell-based; settings: Homo sapiens, HepG2, Hep G2, 72 h; for IC50: read-out: IC50; for IC90: read-out: IC90
Procedure: as §1, with “with a” for “with”, “to the” for “to a”
as §3

[10] = system: RKO (human colon adenocarcinoma cell); assay: MTT cell growth inhibition, RKO cells, 72 h; type: cell-based; settings: for IC50 / IC90: Homo sapiens, RKO, 72 h; for IC50: read-out: IC50; for IC90: read-out: IC90
Procedure: as §1, with “with a” for “with”, “to the” for “to a”
as §3

[11] = system: U87 MG (malignant glioma cell); assay: MTT cell growth inhibition, U87 MG cells, 72 h; type: cell-based, human; settings: for IC50 / IC90: Homo sapiens, U-87 MG, U87-MG, 72 h; for IC50: read-out: IC50; for IC90: read-out: IC90
Procedure: as §1, with “with a” for “with”, “to the” for “to a”
as §3

[12] = system: Hela (human cervical cancer cell); assay: MTT cell growth inhibition, Hela cells, 72 h; type: cell-based; settings: Homo sapiens, HeLa, 72 h; for IC50: read-out: IC50; for IC90: read-out: IC90
Procedure: as §1, with “with a” for “with”, “to the” for “to a”
as §3

[13] = system: CaES-17 (esophageal cancer cell); assay: MTT cell growth inhibition, CaES-17 cells, 72 h; type: cell-based, human; settings: Homo sapiens, CaEs17, CaEs-17, 72 h; for IC50: read-out: IC50; for IC90: read-out: IC90
Procedure: as §1, with “with a” for “with”, “to the” for “to a”
as §3

[14] = system: CNE (nasopharyngeal carcinoma cell); assay: MTT cell growth inhibition, CNE cells, 72 h; type: cell-based, human; settings: for IC50 / IC90: Homo sapiens, CNE, 72 h; for IC50: read-out: IC50; for IC90: read-out: IC90
Procedure: as §1, with “with a” for “with”, “to the” for “to a”
as §3

[15] = system: Hep-2 (laryngeal carcinoma); assay: MTT cell growth inhibition, Hep-2 cells, 72 h; type: cell-based, human; settings: Homo sapiens, HEp-2, 72 h; for IC50: read-out: IC50; for IC90: read-out: IC90
Procedure: as §1, with “with a” for “with”, “to the” for “to a”
as §3

[16] = system: MGC 803 (human gastric cancer cell); assay: MTT cell growth inhibition, MGC 803 cells, 72 h; type: cell-based; settings: Homo sapiens, MGC-803, 72 h; for IC50: read-out: IC50; for IC90: read-out: IC90
Procedure: as §1, with “with a” for “with”, “to the” for “to a”
as §3

PC-3 (prostate cancer) = assay: MTT cell growth inhibition, PC-3 cells, 72 h; type: cell-based, human; settings: for IC50 / IC90: Homo sapiens, PC-3, 72 h; for IC50: read-out: IC50; for IC90: read-out: IC90
Procedure: as §1, with “with a” for “with”, “to the” for “to a”
as §3

[17] = system: SK-OV-3 (ovarian cancer cell); assay: MTT cell growth inhibition, SK-OV-3 cells, 72 h; type: cell-based, human; settings: Homo sapiens, SK-OV-3, 72 h; for IC50: read-out: IC50; for IC90: read-out: IC90
Procedure: as §1, with “with a” for “with”, “to the” for “to a”
as §3

Cc1oc2c(c1C)C(=O)C(=O)c1c-2ccc2c(C)cccc12 [BS-TA-03]
IC50 [1]: 8.84 µg/mL (≈ 30.4 µM)
IC90 [1]: 28.7 µg/mL (≈ 98.7 µM)
IC50 [2]: 9.66 µg/mL (≈ 33.3 µM)
IC90 [2]: 30.3 µg/mL (≈ 104 µM)
IC50 [3]: 1.13 µg/mL (≈ 3.89 µM)
IC90 [3]: 3.64 µg/mL (≈ 12.5 µM)
IC50 [4]: 1.88 µg/mL (≈ 6.48 µM)
IC90 [4]: 6.97 µg/mL (≈ 24 µM)
IC50 [5]: 6.4 µg/mL (≈ 22 µM)
IC90 [5]: > 16 µg/mL
IC50 [6]: 2 µg/mL (≈ 6.89 µM)
IC90 [6]: 16.5 µg/mL (≈ 56.8 µM)
IC50 (A549 (human lung cancer)): 6.45 µg/mL (≈ 22.2 µM)
IC90 (A549 (human lung cancer)): > 16 µg/mL
IC50 [7]: 3.46 µg/mL (≈ 11.9 µM)
IC90 [7]: > 16 µg/mL
IC50 [8]: 3.96 µg/mL (≈ 13.6 µM)
IC90 [8]: > 16 µg/mL
IC50 (MG63 (osteosarcoma)): 3.18 µg/mL (≈ 11 µM)
IC90 (MG63 (osteosarcoma)): > 16 µg/mL
IC50 [9]: 5.48 µg/mL (≈ 18.9 µM)
IC90 [9]: > 16 µg/mL
IC50 [10]: 1.35 µg/mL (≈ 4.65 µM)
IC90 [10]: > 16 µg/mL
anti-RKO activity (in words) ([10]; Table 2): good activity
IC50 [11]: 6.63 µg/mL (≈ 22.8 µM)
IC90 [11]: 16.8 µg/mL (≈ 57.7 µM)
IC50 [12]: 4 µg/mL (≈ 13.8 µM)
IC90 [12]: > 16 µg/mL
IC50 [13]: 5.19 µg/mL (≈ 17.9 µM)
IC90 [13]: 20.4 µg/mL (≈ 70.3 µM)
IC50 [14]: 3.9 µg/mL (≈ 13.4 µM)
IC90 [14]: 97 µg/mL (≈ 334 µM)
anti-CNE activity (in words) ([14]; Table 2): good activity
IC50 [15]: 9.17 µg/mL (≈ 31.6 µM)
IC90 [15]: > 16 µg/mL
IC50 [16]: 4.65 µg/mL (≈ 16 µM)
IC90 [16]: 18.4 µg/mL (≈ 63.4 µM)
IC50 (PC-3 (prostate cancer)): 4.99 µg/mL (≈ 17.2 µM)
IC90 (PC-3 (prostate cancer)): 17.5 µg/mL (≈ 60.3 µM)
anti-PC-3 activity (in words) (PC-3 (prostate cancer); Table 2): good activity
IC50 [17]: > 16 µg/mL
IC90 [17]: > 16 µg/mL

Cc1c(-c2ccccc2Cl)oc2c1C(=O)C(=O)c1c-2ccc2c(C)cccc12 [BS-TA-04]
IC50 [1]: 15.5 µg/mL (≈ 40.1 µM)
IC90 [1]: > 16 µg/mL
IC50 [2]: > 16 µg/mL
IC90 [2]: > 16 µg/mL
IC50 [3]: 4.09 µg/mL (≈ 10.6 µM)
IC90 [3]: 11.2 µg/mL (≈ 29 µM)
IC50 [4]: 4.83 µg/mL (≈ 12.5 µM)
IC90 [4]: 9.72 µg/mL (≈ 25.1 µM)
IC50 [5]: 6.7 µg/mL (≈ 17.3 µM)
IC90 [5]: > 16 µg/mL
IC50 [6]: 4 µg/mL (≈ 10.3 µM)
IC90 [6]: 16.1 µg/mL (≈ 41.5 µM)
IC50 (A549 (human lung cancer)): 6.92 µg/mL (≈ 17.9 µM)
IC90 (A549 (human lung cancer)): > 16 µg/mL
IC50 [7]: 9.8 µg/mL (≈ 25.3 µM)
IC90 [7]: > 16 µg/mL
IC50 [8]: 9.34 µg/mL (≈ 24.1 µM)
IC90 [8]: > 16 µg/mL
IC50 (MG63 (osteosarcoma)): 10.3 µg/mL (≈ 26.7 µM)
IC90 (MG63 (osteosarcoma)): > 16 µg/mL
IC50 [9]: 14.5 µg/mL (≈ 37.4 µM)
IC90 [9]: > 16 µg/mL
IC50 [10]: 5.01 µg/mL (≈ 13 µM)
IC90 [10]: > 16 µg/mL
IC50 [11]: 5.73 µg/mL (≈ 14.8 µM)
IC90 [11]: 19.2 µg/mL (≈ 49.6 µM)
anti-U87 MG activity (in words) ([11]; Table 2): superior to that of tanshinone I per se
IC50 [12]: 5.5 µg/mL (≈ 14.2 µM)
IC90 [12]: 22.2 µg/mL (≈ 57.4 µM)
IC50 [13]: 11 µg/mL (≈ 28.5 µM)
IC90 [13]: 28.8 µg/mL (≈ 74.5 µM)
IC50 [14]: 10.5 µg/mL (≈ 27.1 µM)
IC90 [14]: > 16 µg/mL
IC50 [15]: 11.6 µg/mL (≈ 30.1 µM)
IC90 [15]: > 16 µg/mL
IC50 [16]: 8.88 µg/mL (≈ 23 µM)
IC90 [16]: 23.9 µg/mL (≈ 61.9 µM)
IC50 (PC-3 (prostate cancer)): > 16 µg/mL
IC90 (PC-3 (prostate cancer)): > 16 µg/mL
IC50 [17]: > 16 µg/mL
IC90 [17]: > 16 µg/mL
